Experimental data: patent US8557763B2, “Synthetic peptides that enhance tight junction permeability” (Alba Therapeutics Corporation, priority 2007, dated 2013)
Where no end group is shown, it is not given here. [ ]: non-standard residue; d: D form. AllylGly = C=CC[C@H](N)C(=O)O

Legend:
Assay type in all cases: cell-based
[1] = test system: HeLa cells; assay: Assay of cytoskeletal (actin) rearrangement, fluorescence microscopy; details: 60 minutes, FIG. 11
Protocol: FIG. 10 is a fluorescence microscopy analysis showing the effects of FCIGRL (SEQ ID NO:1) and F-(Allyl)GIGRL (SEQ ID NO:2) on actin rearrangement in HeLa cells after 15 minutes and 60 minutes.
Gliadin treated with the peptidases pepsin and trypsin (termed PT-gliadin or PTG) induces a cytoskeletal arrangement in CaCo2 cells grown in monolayers. The rearrangement can be visualized using a Nikon-TE2000 epifluorescence microscope and a 40× objective and Alexa Fluor 555 conjugated phalloidin (Invitrogen, Carlsbad, Calif.), which binds specifically to F-actin. Exposure times were identical for control and agonist treated samples. The figures were generated using Adobe Photoshop CS2 v 9.0.2. The concentration of agonist was as indicated. Tight junction agonists can be identified by their ability to induce the cytoskeletal rearrangement as shown by the effects of peptide FCIGRL, a known tight junction agonist. FIGS. 3-6 and 8-11 show the cytoskeletal rearrangements induced by exemplary tight junction agonists of the invention, including with respect to the distribution of F-actin and the tight junction protein ZO-1.

[2] = test system: CaCo2 monolayers; assay: Lucifer Yellow (LY) permeability assay through CaCo2 monolayers; design: key to Enhanced LY permeability: + indicates an enhancement of the permeability of the tight junctions were observed; − indicates no enhancement of permeability was observed; details: CaCo2 monolayers, Lucifer Yellow flux
[3] = test system: CaCo2 monolayers; assay: Trans Epithelial Electric Resistance (TEER) across CaCo2 monolayers; design: key to Reduced TEER: + indicates an enhancement of the permeability of the tight junctions were observed; − indicates no enhancement of permeability was observed; details: CaCo2 monolayers

Substance	actin rearrangement in HeLa cells [1]	Enhanced LY permeability [2]	Reduced TEER [3]
Phe−AllylGly−Ile−Gly−Arg−Leu−OH [SEQ ID NO: 2]	actin cytoskeletal rearrangement to the borderline of cells		
12 (Y[AllylGly]IGRL-NH2; N-terminus assumed; SMILES C=CC[C@H](NC(=O)[C@@H](N)Cc1ccc(O)cc1)C(=O)N[C@H](C(=O)NCC(=O)N[C@@H](CCCNC(=N)N)C(=O)N[C@@H](CC(C)C)C(N)=O)[C@@H](C)CC) [compound 12]		−	−
78 (F[AllylGly]IGRG-NH2; N-terminus assumed; SMILES C=CC[C@H](NC(=O)[C@@H](N)Cc1ccccc1)C(=O)N[C@H](C(=O)NCC(=O)N[C@@H](CCCNC(=N)N)C(=O)NCC(N)=O)[C@@H](C)CC) [compound 78]		+	−
74 (F[AllylGly]IGRD-NH2; N-terminus assumed; SMILES C=CC[C@H](NC(=O)[C@@H](N)Cc1ccccc1)C(=O)N[C@H](C(=O)NCC(=O)N[C@@H](CCCNC(=N)N)C(=O)N[C@@H](CC(=O)O)C(N)=O)[C@@H](C)CC) [compound 74]		+	+
20 (R[AllylGly]IGRL-NH2; N-terminus assumed; SMILES C=CC[C@H](NC(=O)[C@@H](N)CCCNC(=N)N)C(=O)N[C@H](C(=O)NCC(=O)N[C@@H](CCCNC(=N)N)C(=O)N[C@@H](CC(C)C)C(N)=O)[C@@H](C)CC) [compound 20]		+	−
51 (F[AllylGly]IKRL-NH2; N-terminus assumed; SMILES C=CC[C@H](NC(=O)[C@@H](N)Cc1ccccc1)C(=O)N[C@H](C(=O)N[C@@H](CCCCN)C(=O)N[C@@H](CCCNC(=N)N)C(=O)N[C@@H](CC(C)C)C(N)=O)[C@@H](C)CC) [compound 51]		−	−
23 (F[AllylGly]FGRL-NH2; N-terminus assumed; SMILES C=CC[C@H](NC(=O)[C@@H](N)Cc1ccccc1)C(=O)N[C@@H](Cc1ccccc1)C(=O)NCC(=O)N[C@@H](CCCNC(=N)N)C(=O)N[C@@H](CC(C)C)C(N)=O) [compound 23]		+	+
2 (F[AllylGly]IGRL) [compound 2]		+	+
72 (F[AllylGly]IGVL-NH2; N-terminus assumed; SMILES C=CC[C@H](NC(=O)[C@@H](N)Cc1ccccc1)C(=O)N[C@H](C(=O)NCC(=O)N[C@H](C(=O)N[C@@H](CC(C)C)C(N)=O)C(C)C)[C@@H](C)CC) [compound 72]		−	+
